Where two headings read alike, the source gives them in different places.
Assays:
[1] = biological target: Mur pathway (MurA-MurF) enzymes from Mtb; assay: one-pot assay reconstructing the Mur pathway (Pi release), inhibitor studies; type: biochemical, Mycobacterium tuberculosis; details: for IC50: six compound concentrations 5-100 μM, 15 min pre-incubation, 30 min at 37 °C, 5% DMSO control; for Percentage inhibition, one-pot assay: at 100 μM concentration of compound
MurC = MurC (Mycobacterium tuberculosis, UniProt P9WJL7); assay: inhibition of individual Mur enzyme: MurC; type: biochemical; details: for remaining activity at 100 µM: at 100 μM compound, vs 'no drug' control (5% DMSO), read-out: RA (residual activity), MurC
Sequence of MurC (P9WJL7 whole entry): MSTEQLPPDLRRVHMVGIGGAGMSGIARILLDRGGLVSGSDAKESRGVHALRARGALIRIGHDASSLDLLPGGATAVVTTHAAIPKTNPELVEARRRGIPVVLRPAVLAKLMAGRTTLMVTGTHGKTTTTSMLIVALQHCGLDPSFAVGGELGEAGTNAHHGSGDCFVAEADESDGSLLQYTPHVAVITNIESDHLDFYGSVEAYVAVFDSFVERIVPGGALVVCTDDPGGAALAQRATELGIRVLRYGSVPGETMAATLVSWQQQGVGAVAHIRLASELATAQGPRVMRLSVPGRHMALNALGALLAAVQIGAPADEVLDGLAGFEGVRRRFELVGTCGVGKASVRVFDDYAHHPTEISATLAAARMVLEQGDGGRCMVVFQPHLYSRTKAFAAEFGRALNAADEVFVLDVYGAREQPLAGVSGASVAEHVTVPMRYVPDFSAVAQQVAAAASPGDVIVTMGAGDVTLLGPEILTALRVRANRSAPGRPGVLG
Protocol: (§1) Each Mur ligase reaction was performed at 37 °C with an incubation period of 1 h. To measure the activity of MurC, the completed MurB reaction was supplemented with 1 mM L-Alanine, 10 mM MgCl2 and 1 mM ATP. MurD-F ligase activities were performed sequentially, supplementing the prior reaction with 1 mM each of the required substrate (D-Glutamate, meso-Diaminopimelic acid and D -Alanine-D-Alanine, respectively). The control reaction contained all the components except the enzyme that was being tested (e.g. the control reaction for MurC assay contained all the components except MurC). For MurD and MurF reaction, purified MBP at 1 μg concentration was added to the reaction mixture instead of the enzymes. Estimation of net Pi was done as previously described in the MurA assay.
(§2) Tested compounds at various concentrations (5–100 μM) were pre-incubated with enzymes for 15 mins, followed by the addition of remaining constituents of the assay. The final reaction mixture was incubated for 30 mins at 37 °C. To assess specific inhibition of Mur ligases, each of the ligase was pre-incubated with inhibitors separately and then added to the one-pot reaction mixture. The net Pi released was calculated as described earlier. In the ‘no drug’ control reaction, the organic solvent (DMSO) used in dissolving inhibitory compounds was added at 5% concentration to the one-pot assay, while Isoniazid, a standard anti-TB drug with no known effect on Mur activity, was inculded as another control to ascertain the specificity of the tested inhibitors in the study.

[2] = test system: Mur pathway (MurA-MurF) enzymes from Mtb; assay: ESI-MS analysis of one-pot assay with inhibitor; type: biochemical, Mycobacterium tuberculosis; details: Fig. S5
MurB = MurB (Mycobacterium tuberculosis, UniProt P9WJL9); assay: inhibition of individual Mur enzyme: MurB; type: biochemical; details: for remaining activity at 100 µM: at 100 μM compound, vs 'no drug' control (5% DMSO), read-out: RA (residual activity), MurB
Sequence of MurB (P9WJL9 whole entry): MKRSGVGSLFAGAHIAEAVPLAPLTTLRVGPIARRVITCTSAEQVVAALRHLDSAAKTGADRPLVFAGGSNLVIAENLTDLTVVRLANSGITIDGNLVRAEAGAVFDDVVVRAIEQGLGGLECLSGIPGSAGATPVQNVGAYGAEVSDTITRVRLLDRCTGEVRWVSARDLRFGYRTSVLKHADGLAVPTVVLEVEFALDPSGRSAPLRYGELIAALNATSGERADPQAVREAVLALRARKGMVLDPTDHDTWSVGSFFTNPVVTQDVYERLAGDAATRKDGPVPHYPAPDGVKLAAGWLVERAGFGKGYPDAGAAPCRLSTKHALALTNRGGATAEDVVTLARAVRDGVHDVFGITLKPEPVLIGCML
Protocol: To assay MurB activity, the MurA reaction after 30 mins of incubation was supplemented with 10 mM KCl, 0.2 mM NADPH and 60 nM of MurB enzyme in a total volume of 100 μl. The absorbance at 340 nm was monitored over 5 min to calculate the rate of NADPH oxidation. The control reaction contained all the components except MurB.
as §2

MurF = MurF (Mycobacterium tuberculosis, UniProt P9WJL1); assay: inhibition of individual Mur enzyme: MurF; type: biochemical
Sequence of MurF (P9WJL1 whole entry): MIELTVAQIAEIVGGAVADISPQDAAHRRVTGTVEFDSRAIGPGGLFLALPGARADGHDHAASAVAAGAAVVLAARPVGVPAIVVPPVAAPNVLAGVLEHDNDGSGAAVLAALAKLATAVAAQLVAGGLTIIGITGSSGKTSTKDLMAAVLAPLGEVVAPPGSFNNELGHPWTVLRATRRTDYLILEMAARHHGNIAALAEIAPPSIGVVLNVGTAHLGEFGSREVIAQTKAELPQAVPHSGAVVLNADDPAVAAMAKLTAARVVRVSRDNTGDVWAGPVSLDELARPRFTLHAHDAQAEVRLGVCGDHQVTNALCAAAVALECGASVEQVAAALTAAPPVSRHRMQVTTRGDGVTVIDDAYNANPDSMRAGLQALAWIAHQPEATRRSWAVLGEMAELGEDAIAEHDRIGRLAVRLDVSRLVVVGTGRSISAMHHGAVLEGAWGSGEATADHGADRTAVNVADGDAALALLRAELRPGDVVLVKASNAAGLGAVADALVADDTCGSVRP
Protocol: as §1, §2

MurA = MurA (Mycobacterium tuberculosis, UniProt P9WJM1); assay: inhibition of individual Mur enzyme: MurA; type: biochemical; details: for remaining activity at 100 µM: at 100 μM compound, vs 'no drug' control (5% DMSO), read-out: RA (residual activity), MurA
Sequence of MurA (P9WJM1 whole entry): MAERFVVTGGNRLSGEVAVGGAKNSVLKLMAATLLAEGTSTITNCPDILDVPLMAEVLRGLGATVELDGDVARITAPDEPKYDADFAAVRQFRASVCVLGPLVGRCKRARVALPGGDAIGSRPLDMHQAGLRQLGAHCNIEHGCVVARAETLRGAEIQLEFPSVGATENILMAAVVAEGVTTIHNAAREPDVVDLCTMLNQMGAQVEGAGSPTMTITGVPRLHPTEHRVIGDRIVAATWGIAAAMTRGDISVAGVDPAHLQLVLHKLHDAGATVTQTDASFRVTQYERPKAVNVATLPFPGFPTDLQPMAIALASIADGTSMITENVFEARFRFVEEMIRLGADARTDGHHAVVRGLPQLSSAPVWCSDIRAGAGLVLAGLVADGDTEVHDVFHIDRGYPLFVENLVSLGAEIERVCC
Protocol: The reaction was performed in a micro-titer plate at 37 °C for 30 minutes and terminated by the addition of Pi Colorlock™ Assay reagent. Absorbance was measured at 630 nm and the amount of Pi released was calculated from the standard phosphate curve. […] The control reactions contained all the components except MurA. The net Pi was calculated by subtracting total Pi in the control reaction from the total Pi after the completion of the assay. To get a large assay window and to avoid saturation of Pi, optimization of assays were carried out at substrate concentrations so as not to exceed the assay signal beyond 2.0 absorbance units as recommended by the manufacturer of PiColorlock™ Assay kit.
as §2

MurE = MurE (Mycobacterium tuberculosis, UniProt P9WJL3); assay: inhibition of individual Mur enzyme: MurE; type: biochemical
Sequence of MurE (P9WJL3 whole entry): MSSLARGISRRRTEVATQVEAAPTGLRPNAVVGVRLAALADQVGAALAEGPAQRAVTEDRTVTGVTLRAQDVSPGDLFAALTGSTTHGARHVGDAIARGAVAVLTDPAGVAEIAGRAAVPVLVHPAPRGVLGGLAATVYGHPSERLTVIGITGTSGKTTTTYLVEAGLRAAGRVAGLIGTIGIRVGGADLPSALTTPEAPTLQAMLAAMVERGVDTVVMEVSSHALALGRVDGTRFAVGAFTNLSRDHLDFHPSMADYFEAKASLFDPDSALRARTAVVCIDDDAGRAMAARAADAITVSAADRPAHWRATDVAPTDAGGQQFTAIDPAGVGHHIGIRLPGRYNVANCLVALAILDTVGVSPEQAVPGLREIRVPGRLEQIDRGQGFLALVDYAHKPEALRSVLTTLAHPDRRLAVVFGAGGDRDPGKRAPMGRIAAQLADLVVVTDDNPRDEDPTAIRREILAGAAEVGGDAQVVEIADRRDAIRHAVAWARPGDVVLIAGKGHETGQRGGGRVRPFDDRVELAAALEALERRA

MurD = MurD (Mycobacterium tuberculosis, UniProt P9WJL5); assay: inhibition of individual Mur enzyme: MurD; type: biochemical; details: for remaining activity at 100 µM: at 100 μM compound, vs 'no drug' control (5% DMSO), read-out: RA (residual activity), MurD
Sequence of MurD (P9WJL5 whole entry): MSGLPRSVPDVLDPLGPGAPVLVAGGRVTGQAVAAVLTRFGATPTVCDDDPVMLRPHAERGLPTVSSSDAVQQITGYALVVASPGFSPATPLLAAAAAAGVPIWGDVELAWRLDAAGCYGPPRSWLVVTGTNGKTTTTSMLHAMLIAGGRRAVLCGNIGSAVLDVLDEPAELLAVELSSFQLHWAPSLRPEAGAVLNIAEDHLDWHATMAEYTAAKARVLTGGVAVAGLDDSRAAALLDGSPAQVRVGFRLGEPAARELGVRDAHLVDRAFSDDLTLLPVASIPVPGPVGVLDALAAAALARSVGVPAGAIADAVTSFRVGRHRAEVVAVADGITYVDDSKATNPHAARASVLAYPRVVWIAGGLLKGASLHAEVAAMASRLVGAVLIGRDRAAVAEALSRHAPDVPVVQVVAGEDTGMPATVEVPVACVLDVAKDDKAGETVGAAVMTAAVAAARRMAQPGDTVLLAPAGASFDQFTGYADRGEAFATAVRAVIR
Protocol: as §1, §2

MurE from E.coli = test system: MurE from E.coli; design: method as in PMID 25851408; details: range stated jointly for MurE and MurF; cited from earlier work
C=C(OP(=O)(O)O)C(=O)O = assay: purified protein, by the assay type; details: pH 7.0; 37.0 °C

Row | Molecule | IC50 [1] [µM] | remaining activity at 100 µM (MurC) [%] | final product (UDP-MurNAc pentapeptide) formation in one-pot assay by ESI-MS [2] | remaining activity at 100 µM (MurB) [%] | IC50 (MurF) [µM] | remaining activity at 100 µM (MurA) [%] | IC50 (MurE; six compound concentrations 5-100 μM, read-out: IC50, MurE) [µM] | remaining activity at 100 µM (MurD) [%] | Percentage inhibition, one-pot assay [1] [%] | inhibition of MurC (in words) (MurC) | inhibition of MurB (in words) (MurB) | inhibition of MurA (in words) (MurA) | IC50 (MurE from E.coli) [µM] | IC50 (MurE) [µM] | inhibition of MurD (in words) (MurD) | Km (C=C(OP(=O)(O)O)C(=O)O) [µM] | Vmax (C=C(OP(=O)(O)O)C(=O)O) [µM/min]
1 | N[C@@H]1CON=C1O [D-Cycloserine, reference compound] | 74 | 64 | inhibition of final product formation | > 100 | 67.1 | > 100 | 97 | 72 | – | – | – | – | – | – | – | – | –
2 | O=C(O)c1cc(-c2ccc(/C=C3/SC(=S)N(c4ccc([N+](=O)[O-])cc4)C3=O)o2)ccc1Cl [Compound 3] | 19.6 | 66 | – | > 100 | 45.4 | 75 | – | 88 | 97 | marginal inhibition | no inhibition | marginal inhibition | 11 to 16 | 61.6 | marginal inhibition | – | –
3 | Mtb MurA (Mycobacterium tuberculosis H37Rv) | – | – | – | – | – | – | – | – | – | – | – | – | – | – | – | 527.8 | 0.173
4 | O=C(O)c1cc(-c2ccc(/C=C3/SC(=S)N(c4cccc([N+](=O)[O-])c4)C3=O)o2)ccc1Cl [Compound 4] | 8.25 | 73 | – | > 100 | 25.8 | > 100 | – | 85 | 93 | marginal inhibition | did not inhibit | did not inhibit | 11 to 16 | 17 | marginal inhibition | – | –

— article PMC5062083, “Development of a one-pot assay for screening and identification of Mur pathway inhibitors in Mycobacterium tuberculosis” (Scientific Reports, 2016)
